# Experimental data: ChEMBL document CHEMBL1151454, “Failures in clinical treatment of Staphylococcus aureus Infection with daptomycin are associated with alterations in surface charge, membrane phospholipid asymmetry, and drug binding” (Antimicrob Agents Chemother, 2008)
# Calls of active or inactive are those of the source. No cut-off for these calls is given here. Non-standard residues stand in square brackets, D forms with d. Residues, ends and D or L forms follow the SMILES beside them. *: point of attachment. NHCH2CH2OH = OCCN*; For = O=C*
# Tests used:
# Staphylococcus aureus [1] = experiment: Antibacterial activity against daptomycin-nonsusceptible Staphylococcus aureus isolate 703 bloodstream form isolated from patient with endocarditis after 18 hrs by microdilution technique; assay type: functional; conditions: Staphylococcus aureus, 703, 18 h
# Staphylococcus aureus [2] = experiment: Drug binding to daptomycin-nonsusceptible Staphylococcus aureus isolate 703 bloodstream form isolated from patient with endocarditis at 32 ug after 10 mins by radial diffusion assay; assay type: ADME, organism-based
# Staphylococcus aureus [3] = experiment: Drug binding to daptomycin-nonsusceptible Staphylococcus aureus isolate 701 bloodstream form isolated from patient with endocarditis at 32 ug after 10 mins by radial diffusion assay; assay type: ADME, organism-based
# Staphylococcus aureus [4] = experiment: Antibacterial activity against daptomycin-transitional Staphylococcus aureus isolate 629 bloodstream form isolated from patient with endocarditis after 18 hrs by microdilution technique; assay type: functional; conditions: Staphylococcus aureus, 629, 18 h
# Staphylococcus aureus [5] = experiment: Antibacterial activity against daptomycin-nonsusceptible Staphylococcus aureus isolate 701 bloodstream form isolated from patient with endocarditis after 18 hrs by microdilution technique; assay type: functional; conditions: Staphylococcus aureus, 701, 18 h
# Staphylococcus aureus [6] = experiment: Antibacterial activity against methicillin-susceptible Staphylococcus aureus isolate 616 bloodstream form isolated from patient with endocarditis after 18 hrs by microdilution technique; assay type: functional; conditions: Staphylococcus aureus, 616, 18 h
# Staphylococcus aureus [7] = experiment: Drug binding to daptomycin-transitional Staphylococcus aureus isolate 629 bloodstream form isolated from patient with endocarditis at 32 ug after 10 mins by radial diffusion assay; assay type: ADME, organism-based
# Staphylococcus aureus [8] = experiment: Drug binding to methicillin-susceptible Staphylococcus aureus isolate 616 bloodstream form isolated from patient with endocarditis at 32 ug after 10 mins by radial diffusion assay; assay type: ADME, organism-based
# Staphylococcus aureus [9] = experiment: Antibacterial activity against methicillin-susceptible Staphylococcus aureus isolate 616 bloodstream form isolated from patient with endocarditis assessed as inhibition on heterogeneous subpopulation survival rate at 0.25 and 1 ug/ml after 48 hrs; assay type: functional, organism-based
# Staphylococcus aureus [10] = experiment: Induction of autolysis in methicillin-susceptible Staphylococcus aureus isolate 616 bloodstream form isolated from patient 50 ug/ml within 24 hrs; assay type: functional, organism-based
# Staphylococcus aureus [11] = experiment: Induction of autolysis in daptomycin-nonsusceptible Staphylococcus aureus isolate 703 bloodstream form isolated from patient 50 ug/ml within 24 hrs; assay type: functional, organism-based
# Staphylococcus aureus [12] = experiment: Antibacterial activity against daptomycin-nonsusceptible Staphylococcus aureus isolate 701 bloodstream form isolated from patient with endocarditis assessed as inhibition on heterogeneous subpopulation survival rate at 0.25 and 1 ug/ml after 48 hrs; assay type: functional, organism-based
# Staphylococcus aureus [13] = experiment: Induction of autolysis in daptomycin-transitional Staphylococcus aureus isolate 629 bloodstream form isolated from patient 50 ug/ml within 24 hrs; assay type: functional, organism-based
# Staphylococcus aureus [14] = experiment: Induction of autolysis in daptomycin-nonsusceptible Staphylococcus aureus isolate 703 bloodstream form isolated from patient 50 ug/ml measured at 18 hrs; assay type: functional, organism-based
# Staphylococcus aureus [15] = experiment: Induction of autolysis in daptomycin-nonsusceptible Staphylococcus aureus isolate 701 bloodstream form isolated from patient 50 ug/ml within 24 hrs; assay type: functional, organism-based
# Staphylococcus aureus [16] = experiment: Antibacterial activity against daptomycin-transitional Staphylococcus aureus isolate 629 bloodstream form isolated from patient with endocarditis assessed as inhibition on heterogeneous subpopulation survival rate at 0.25 and 1 ug/ml after 48 hrs; assay type: functional, organism-based
# Staphylococcus aureus [17] = experiment: Antibacterial activity against daptomycin-nonsusceptible Staphylococcus aureus isolate 703 bloodstream form isolated from patient with endocarditis assessed as inhibition on heterogeneous subpopulation survival rate at 0.25 and 1 ug/ml after 48 hrs; assay type: functional, organism-based
SMILES,MIC (Staphylococcus aureus [1]),Drug uptake (Staphylococcus aureus [2]),Drug uptake (Staphylococcus aureus [3]),MIC (Staphylococcus aureus [4]),MIC (Staphylococcus aureus [5]),MIC (Staphylococcus aureus [6]),Drug uptake (Staphylococcus aureus [7]),Drug uptake (Staphylococcus aureus [8]),Activity (Staphylococcus aureus [9]),Activity (Staphylococcus aureus [10]),Activity (Staphylococcus aureus [11]),Activity (Staphylococcus aureus [12]),Activity (Staphylococcus aureus [13]),Activity (Staphylococcus aureus [14]),Activity (Staphylococcus aureus [15]),Activity (Staphylococcus aureus [16]),Activity (Staphylococcus aureus [17])
CC(C)C[C@@H](NC(=O)[C@H](C)NC(=O)CNC(=O)[C@@H](NC=O)C(C)C)C(=O)N[C@@H](C)C(=O)N[C@@H](C(=O)N[C@H](C(=O)N[C@@H](C(=O)N[C@@H](Cc1c[nH]c2ccccc12)C(=O)N[C@H](CC(C)C)C(=O)N[C@@H](Cc1c[nH]c2ccccc12)C(=O)N[C@H](CC(C)C)C(=O)N[C@@H](Cc1c[nH]c2ccccc12)C(=O)N[C@H](CC(C)C)C(=O)N[C@@H](Cc1c[nH]c2ccccc12)C(=O)NCCO)C(C)C)C(C)C)C(C)C [GRAMICIDIN D] (For-VGA[dL]A[dV]V[dV]W[dL]W[dL]W[dL]W-NHCH2CH2OH),32 µg/mL,9 µg/mL,11 µg/mL,32 µg/mL,32 µg/mL,32 µg/mL,10 µg/mL,12 µg/mL,–,–,–,–,–,–,–,–,–
CN[C@H](CC(C)C)C(=O)N[C@H]1C(=O)N[C@@H](CC(N)=O)C(=O)N[C@H]2C(=O)N[C@H]3C(=O)N[C@H](C(=O)N[C@H](C(=O)O)c4cc(O)cc(O)c4-c4cc3ccc4O)[C@H](O)c3ccc(c(Cl)c3)Oc3cc2cc(c3O[C@@H]2O[C@H](CO)[C@@H](O)[C@H](O)[C@H]2O[C@H]2C[C@](C)(N)[C@H](O)[C@H](C)O2)Oc2ccc(cc2Cl)[C@H]1O,–,–,–,–,–,–,–,–,inactive,Active,inactive,inactive,inactive,inactive,inactive,inactive,inactive
